Test results: ChEMBL document CHEMBL4616595, “Targeted suppression of metastasis regulatory transcription factor SOX2 in various cancer cell lines using a sequence-specific designer pyrrole-imidazole polyamide” (Bioorg Med Chem, 2020)
Calls of active or inactive are those of the source. No cut-off for these calls is given here.

Key:
[1] = test system: MCF7; assay: Cell cycle arrest in human MCF7 cells assessed as increase in accumulation at sub-G1/G1 phase at 2 uM to 5 uM after 48 hrs by propidium iodide staining based flow cytometry analysis; assay type: functional
[2] = test system: SOX2 promoter DNA; assay: Binding affinity to SOX2 promoter 5'-CTTTGTT-3' DNA in human SW620 cells assessed as down regulation of PROM1 gene expression at 2 uM incubated for 48 hrs by Cy3-labelled cRNA-based microarray analysis; assay type: cell-based; settings: SW-620
[3] = test system: SOX2 promoter DNA; assay: Binding affinity to SOX2 promoter 5'-CTTTGTT-3' DNA in human SW620 cells assessed as down regulation of stemness associated KLF4 mRNA expression at 2 uM incubated for 48 hrs by qRT-PCR analysis; assay type: cell-based; settings: SW-620
[4] = test system: SOX2 promoter DNA; assay: Binding affinity to SOX2 promoter 5'-CTTTGTT-3' DNA in human U2OS cells assessed as reduction in SOX2 protein level incubated for 48 hrs by immunostaining based FACS analysis; assay type: cell-based
[5] = test system: SOX2 promoter DNA; assay: Binding affinity to SOX2 promoter 5'-CTTTGTT-3' DNA in mouse Hepa1 cells assessed as reduction in SOX2 mRNA expression incubated for 48 hrs by qRT-PCR analysis; assay type: cell-based
[6] = test system: SW-620; assay: Antiproliferative activity against human SW620 cells assessed as inhibition of cell proliferation incubated for 48 hrs by [3H]thymidine incorporation based scintillation counting method; assay type: functional
[7] = test system: MKN-45; assay: Cell cycle arrest in human MKN45 cells assessed as reduction in accumulation at S phase at 2 uM to 5 uM after 48 hrs by propidium iodide staining based flow cytometry analysis; assay type: functional
[8] = test system: SW-620; assay: Antiinvasive activity in human SW620 cells assessed as reduction in cell invasion at 5 uM incubated for 72 hrs by crystal violet staining based assay relative to untreated control; assay type: functional
[9] = test system: SOX2 promoter DNA; assay: Binding affinity to SOX2 promoter 5'-CTTTGTT-3' DNA in human SW620 cells assessed as reduction in SOX2 protein level incubated for 48 hrs by immunostaining based FACS analysis; assay type: cell-based; settings: SW-620
[10] = test system: SOX2 promoter DNA; assay: Binding affinity to SOX2 promoter 5'-CTTTGTT-3' DNA in human SW620 cells assessed as down regulation of GRB2 mRNA expression incubated for 48 hrs by qRT-PCR analysis; assay type: cell-based; settings: SW-620
[11] = test system: SOX2 promoter DNA; assay: Binding affinity to SOX2 promoter 5'-CTTTGTT-3' DNA in human SW620 cells assessed as up regulation of CDH1 mRNA expression at 2 uM incubated for 48 hrs by qRT-PCR analysis; assay type: cell-based; settings: SW-620
[12] = test system: SOX2 promoter DNA; assay: Binding affinity to SOX2 promoter 5'-CTTTGTT-3' DNA in human MCF7 cells assessed as reduction in SOX2 protein level incubated for 48 hrs by immunostaining based FACS analysis; assay type: cell-based
[13] = test system: MCF7; assay: Antiproliferative activity against human MCF7 cells assessed as inhibition of cell proliferation incubated for 48 hrs by [3H]thymidine incorporation based scintillation counting method; assay type: functional
[14] = test system: SOX2 promoter DNA; assay: Binding affinity to SOX2 promoter 5'-CTTTGTT-3' DNA in human SW620 cells assessed as upregulation of GSK3-beta mRNA expression incubated for 48 hrs by qRT-PCR analysis; assay type: cell-based; settings: SW-620
[15] = test system: SW-620; assay: Up regulation of FAS mRNA expression in human SW620 cells incubated for 48 hrs by qRT-PCR analysis; assay type: functional, cell-based
[16] = test system: SOX2 promoter DNA; assay: Binding affinity to SOX2 promoter 5'-CTTTGTT-3' DNA in human SW620 cells assessed as down regulation of ALDH1A1 gene expression at 2 uM incubated for 48 hrs by Cy3-labelled cRNA-based microarray analysis; assay type: cell-based; settings: SW-620
[17] = test system: MCF7; assay: Cell cycle arrest in human MCF7 cells assessed as reduction in accumulation at G2/M phase at 2 uM to 5 uM after 48 hrs by propidium iodide staining based flow cytometry analysis; assay type: functional
[18] = test system: SOX2 promoter DNA; assay: Binding affinity to SOX2 promoter 5'-CTTTGTT-3' DNA in human SW620 cells assessed as down regulation of VIM gene expression at 2 uM incubated for 48 hrs by Cy3-labelled cRNA-based microarray analysis; assay type: cell-based; settings: SW-620
[19] = test system: SOX2 promoter DNA; assay: Binding affinity to SOX2 promoter 5'-CTTTGTT-3' DNA in human SW620 cells assessed as down regulation of stemness associated BMP-4 mRNA expression at 2 uM incubated for 48 hrs by qRT-PCR analysis; assay type: cell-based; settings: SW-620
[20] = test system: SW-620; assay: Up regulation of p27kip1 mRNA expression in human SW620 cells incubated for 48 hrs by qRT-PCR analysis; assay type: functional, cell-based
[21] = test system: SOX2 promoter DNA; assay: Binding affinity to SOX2 promoter 5'-CTTTGTT-3' DNA in human SW620 cells assessed as downregulation S100A4 mRNA expression incubated for 48 hrs by qRT-PCR analysis; assay type: cell-based; settings: SW-620
[22] = test system: SW-620; assay: Up regulation of TP73 mRNA expression in human SW620 cells incubated for 48 hrs by qRT-PCR analysis; assay type: functional, cell-based
[23] = test system: MKN-45; assay: Antiproliferative activity against human MKN45 cells assessed as inhibition of cell proliferation incubated for 48 hrs by [3H]thymidine incorporation based scintillation counting method; assay type: functional
[24] = test system: SOX2 promoter DNA; assay: Binding affinity to SOX2 promoter 5'-CTTTGTT-3' DNA in human SW620 cells assessed as down regulation of […] mRNA expression at 2 uM incubated for 48 hrs by qRT-PCR analysis; assay type: cell-based; settings: SW-620
[25] = test system: SOX2 promoter DNA; assay: Binding affinity to SOX2 promoter 5'-CTTTGTT-3' DNA in human SW620 cells assessed as upregulation of APC mRNA expression incubated for 48 hrs by qRT-PCR analysis; assay type: cell-based; settings: SW-620
[26] = test system: SW-620; assay: Cell cycle arrest in human SW620 cells assessed as reduction in accumulation at S phase at 2 uM to 5 uM after 48 hrs by propidium iodide staining based flow cytometry analysis; assay type: functional
[27] = test system: SOX2 promoter DNA; assay: Binding affinity to SOX2 promoter 5'-CTTTGTT-3' DNA in human SW620 cells assessed as downregulation DVL3 mRNA expression incubated for 48 hrs by qRT-PCR analysis; assay type: cell-based; settings: SW-620
[28] = test system: SOX2 promoter DNA; assay: Binding affinity to SOX2 promoter 5'-CTTTGTT-3' DNA in human SW620 cells assessed as downregulation WNT2B mRNA expression incubated for 48 hrs by qRT-PCR analysis; assay type: cell-based; settings: SW-620
[29] = test system: SOX2 promoter DNA; assay: Binding affinity to SOX2 promoter 5'-CTTTGTT-3' DNA in human SW620 cells assessed as reduction in SOX2 protein level by measuring SOX2 level at 5 uM incubated for 48 hrs by immunostaining based FACS analysis (reference value: 55.9%); assay type: cell-based; set-up: scale not given: the % may be the effect or the level left; settings: SW-620
[30] = test system: SW-620; assay: Up regulation of caspase-3 mRNA expression in human SW620 cells incubated for 48 hrs by qRT-PCR analysis; assay type: functional, cell-based
[31] = test system: SOX2 promoter DNA; assay: Binding affinity to SOX2 promoter 5'-CTTTGTT-3' DNA in mouse EG7 cells assessed as reduction in SOX2 mRNA expression incubated for 48 hrs by qRT-PCR analysis; assay type: cell-based
[32] = test system: SOX2 promoter DNA; assay: Binding affinity to SOX2 promoter 5'-CTTTGTT-3' DNA in mouse Wehi3 cells assessed as reduction in SOX2 mRNA expression incubated for 48 hrs by qRT-PCR analysis; assay type: cell-based
[33] = test system: SOX2 promoter DNA; assay: Binding affinity to SOX2 promoter 5'-CTTTGTT-3' DNA in human SW620 cells assessed as downregulation DVL2 mRNA expression incubated for 48 hrs by qRT-PCR analysis; assay type: cell-based; settings: SW-620

CC(=O)Nc1cc(C(=O)Nc2cc(C(=O)Nc3cc(C(=O)NCCC(=O)Nc4cn(C)c(C(=O)Nc5cc(C(=O)NCCCC(=O)Nc6cc(C(=O)Nc7cc(C(=O)NCCC(=O)Nc8cc(C(=O)Nc9cc(C(=O)Nc%10cn(C)c(C(=O)NCCCN(C)C)n%10)n(C)c9)n(C)c8)n(C)c7)n(C)c6)n(C)c5)n4)n(C)c3)n(C)c2)n(C)c1
Activity [1]: Active
Activity [2]: Active
Activity [3]: Active
Activity [4]: Dose-dependent effect
Activity [5]: Active
inhibition [6]: Dose-dependent effect
Activity [7]: Active
fold change (FC) [8]: 4
Activity [9]: Dose-dependent effect
Activity [10]: Active
Activity [11]: Active
Activity [12]: Dose-dependent effect
inhibition [13]: Dose-dependent effect
Activity [14]: Active
Activity [15]: Active
Activity [16]: Active
Activity [17]: Active
Activity [18]: Active
Activity [19]: Active
Activity [20]: Active
Activity [21]: Active
Activity [22]: Active
inhibition [23]: Dose-dependent effect
Activity [24]: Active
Activity [25]: Active
Activity [26]: Active
Activity [27]: Active
Activity [28]: Active
Activity [29]: 28.1%
Activity [30]: Active
Activity [31]: Active
Activity [32]: Active
Activity [33]: Active
